One assay addresses T1, rat P2X4R (rP2X4R) (Rattus norvegicus, UniProt P51577).
T1 construct: gene P2rx4; rP2X4R stably expressed in 1321N1 cells
T1 sequence (P51577 1-388): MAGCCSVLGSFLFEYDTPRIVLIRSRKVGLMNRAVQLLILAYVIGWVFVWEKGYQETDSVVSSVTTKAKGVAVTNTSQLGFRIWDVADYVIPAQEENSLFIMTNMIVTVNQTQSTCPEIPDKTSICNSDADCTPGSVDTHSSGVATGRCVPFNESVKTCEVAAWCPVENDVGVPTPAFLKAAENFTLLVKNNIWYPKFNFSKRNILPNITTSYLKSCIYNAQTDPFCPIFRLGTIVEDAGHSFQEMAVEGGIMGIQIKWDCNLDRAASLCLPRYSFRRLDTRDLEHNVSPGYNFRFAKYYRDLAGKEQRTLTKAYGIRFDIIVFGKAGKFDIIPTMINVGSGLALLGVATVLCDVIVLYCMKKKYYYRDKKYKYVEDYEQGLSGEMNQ
The assay is described as follows: Fura-2 Ca2+ assay (FDSS […]EX), inhibition of […] ATP response, […] duloxetine. Format: cell-based.

Assay [1] concerns the target T2, human P2X4R (P2X4 receptor) (Homo sapiens, UniProt Q99571).
T2 construct: gene P2RX4
T2 sequence (Q99571 1-388): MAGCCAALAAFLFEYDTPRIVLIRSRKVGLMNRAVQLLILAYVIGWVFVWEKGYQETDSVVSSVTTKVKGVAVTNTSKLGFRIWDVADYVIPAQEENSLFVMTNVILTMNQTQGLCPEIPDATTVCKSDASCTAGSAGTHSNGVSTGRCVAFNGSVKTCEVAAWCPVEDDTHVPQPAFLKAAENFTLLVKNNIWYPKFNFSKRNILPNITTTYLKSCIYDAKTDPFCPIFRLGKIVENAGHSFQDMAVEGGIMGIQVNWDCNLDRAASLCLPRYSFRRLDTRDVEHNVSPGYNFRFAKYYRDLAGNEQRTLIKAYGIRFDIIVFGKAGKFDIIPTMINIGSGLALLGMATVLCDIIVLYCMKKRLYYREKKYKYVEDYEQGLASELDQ
The assay is described as follows: cell-based.

The term IC50 denotes the midpoint of a concentration-inhibition curve. A higher IC50 goes with weaker potency in that assay. Consider `CNCC[C@H](Oc1cccc2ccccc12)c1cccs1` [duloxetine], for which the “Fura-2 Ca2+ assay (FDSS 7000EX), inhibition of 10 μM ATP response, 3-30 μM dulox” value at rat P2X4R (rP2X4R) is “The inhibitory effect of duloxetine was concentration dependent in rP2X4R-1321N1 cells (Fig 1A)”. For the same compound, the midpoint of inhibition in assay [1], the IC50, lay at 1.59 µM.
